Test results: patent US12240844B2 (Voronoi, Inc., priority 2019, dated 2025)

Experiments:
SHP-77 = SHP-77 cancer cell proliferation inhibition (Cell Titer-Glo); type: cell-based; settings: Homo sapiens, SHP77, SHP-77 small cell lung cancer cell line, 72 hours
In short: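 GI50 comes from CellTiter-Glo luminescence, read 10 min after reagent addition at RT, following 72 h compound treatment. Eleven concentrations were used (⅓ steps, highest 10 μM final) on 2000 cells/well. MDA-MB-231 and MDA-MB-468 were grown in DMEM, SHP-77 in RPMI.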

TNF-α = TNF-α secretion inhibition in LPS-treated THP-1 cells (ELISA); type: cell-based; settings: Homo sapiens, compound 0.5 μM, LPS 500 ng/ml, 24 hours, read-out: THP-1/TNF-a (% inhib)
In short: (§1)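 Human monocytic THP-1 cells were pre-cultured 16 h at 37° C., then treated with compound at 0.5 μM final, followed by LPS at 500 ng/ml final. After 24 h, IL-6 and TNF-α in culture supernatant were quantified by ELISA with absorbance read at 450 nm.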

TTK = biological target: T1, TTK (Homo sapiens, UniProt P33981); experiment: scanMAX Kinase panel (DiscoverX), % control; type: binding; set-up: purchased DiscoverX; settings: <35% = active
T1 sequence (P33981 1-857): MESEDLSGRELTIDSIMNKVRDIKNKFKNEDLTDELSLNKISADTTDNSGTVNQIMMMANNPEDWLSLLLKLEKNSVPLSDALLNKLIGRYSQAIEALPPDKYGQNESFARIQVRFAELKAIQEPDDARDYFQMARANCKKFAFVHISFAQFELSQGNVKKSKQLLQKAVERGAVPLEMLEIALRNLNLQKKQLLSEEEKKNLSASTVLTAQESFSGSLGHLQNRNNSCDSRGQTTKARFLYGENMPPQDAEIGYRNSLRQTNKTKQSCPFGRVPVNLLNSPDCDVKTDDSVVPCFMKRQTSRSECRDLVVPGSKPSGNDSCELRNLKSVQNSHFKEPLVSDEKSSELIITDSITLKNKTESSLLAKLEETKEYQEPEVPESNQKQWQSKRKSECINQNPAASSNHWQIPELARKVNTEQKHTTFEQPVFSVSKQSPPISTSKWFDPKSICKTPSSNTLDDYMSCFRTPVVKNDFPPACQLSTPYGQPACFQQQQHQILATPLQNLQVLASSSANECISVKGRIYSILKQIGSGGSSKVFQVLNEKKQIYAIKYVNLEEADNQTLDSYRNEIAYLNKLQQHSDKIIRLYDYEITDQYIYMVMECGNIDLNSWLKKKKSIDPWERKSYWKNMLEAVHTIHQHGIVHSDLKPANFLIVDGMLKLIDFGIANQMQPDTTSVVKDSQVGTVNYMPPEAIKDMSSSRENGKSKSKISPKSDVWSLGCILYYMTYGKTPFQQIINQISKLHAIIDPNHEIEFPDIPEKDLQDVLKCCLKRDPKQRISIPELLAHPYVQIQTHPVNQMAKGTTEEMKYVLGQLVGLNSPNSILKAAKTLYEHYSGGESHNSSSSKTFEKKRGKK
Protocol: (§2) Specifically, for Examples 162, 160, 105, 217, 205, 96, 207, 184, 206, 221, 238, and 237 selected among the example compounds of the present invention, it was decided to measure enzyme (kinase) selectivity by DiscoverX, and the experiment was conducted using a panel for scanMAX™ Kinase analysis. At this time, the concentration of the drug treated with the enzyme was 1 uM in DMSO, the control percentage (% control) was determined in the same way as in Equation 1 below, and the results were shown in Table 6 below. [formula] Here, the positive control refers to a compound showing a control percentage of 0%, and the negative control is DMSO, indicating a control percentage of 100%. Also, in the enzyme selectivity of the present invention, if the control percentage for each enzyme was <35% (i.e., less than 35%), it was determined to have activity against the relevant enzyme.

LRRK2 (G2019S) = LRRK2 (G2019S) (Homo sapiens, UniProt Q5S007, G2019S); experiment: scanMAX Kinase panel (DiscoverX), % control; type: binding; set-up: purchased DiscoverX; settings: <35% = active
Protocol: as §2

LRRK2 = LRRK2 (Homo sapiens, UniProt Q5S007); experiment: scanMAX Kinase panel (DiscoverX), % control; type: binding; set-up: purchased DiscoverX; settings: <35% = active
Protocol: as §2

IL-6 = IL-6 secretion inhibition in LPS-treated THP-1 cells (ELISA); type: cell-based; settings: Homo sapiens, compound 0.5 μM, LPS 500 ng/ml, 24 hours, read-out: THP1/IL6 (% inhib)
In short: as §1

Chain of LRRK2 (G2019S) (Q5S007 whole entry G2019S): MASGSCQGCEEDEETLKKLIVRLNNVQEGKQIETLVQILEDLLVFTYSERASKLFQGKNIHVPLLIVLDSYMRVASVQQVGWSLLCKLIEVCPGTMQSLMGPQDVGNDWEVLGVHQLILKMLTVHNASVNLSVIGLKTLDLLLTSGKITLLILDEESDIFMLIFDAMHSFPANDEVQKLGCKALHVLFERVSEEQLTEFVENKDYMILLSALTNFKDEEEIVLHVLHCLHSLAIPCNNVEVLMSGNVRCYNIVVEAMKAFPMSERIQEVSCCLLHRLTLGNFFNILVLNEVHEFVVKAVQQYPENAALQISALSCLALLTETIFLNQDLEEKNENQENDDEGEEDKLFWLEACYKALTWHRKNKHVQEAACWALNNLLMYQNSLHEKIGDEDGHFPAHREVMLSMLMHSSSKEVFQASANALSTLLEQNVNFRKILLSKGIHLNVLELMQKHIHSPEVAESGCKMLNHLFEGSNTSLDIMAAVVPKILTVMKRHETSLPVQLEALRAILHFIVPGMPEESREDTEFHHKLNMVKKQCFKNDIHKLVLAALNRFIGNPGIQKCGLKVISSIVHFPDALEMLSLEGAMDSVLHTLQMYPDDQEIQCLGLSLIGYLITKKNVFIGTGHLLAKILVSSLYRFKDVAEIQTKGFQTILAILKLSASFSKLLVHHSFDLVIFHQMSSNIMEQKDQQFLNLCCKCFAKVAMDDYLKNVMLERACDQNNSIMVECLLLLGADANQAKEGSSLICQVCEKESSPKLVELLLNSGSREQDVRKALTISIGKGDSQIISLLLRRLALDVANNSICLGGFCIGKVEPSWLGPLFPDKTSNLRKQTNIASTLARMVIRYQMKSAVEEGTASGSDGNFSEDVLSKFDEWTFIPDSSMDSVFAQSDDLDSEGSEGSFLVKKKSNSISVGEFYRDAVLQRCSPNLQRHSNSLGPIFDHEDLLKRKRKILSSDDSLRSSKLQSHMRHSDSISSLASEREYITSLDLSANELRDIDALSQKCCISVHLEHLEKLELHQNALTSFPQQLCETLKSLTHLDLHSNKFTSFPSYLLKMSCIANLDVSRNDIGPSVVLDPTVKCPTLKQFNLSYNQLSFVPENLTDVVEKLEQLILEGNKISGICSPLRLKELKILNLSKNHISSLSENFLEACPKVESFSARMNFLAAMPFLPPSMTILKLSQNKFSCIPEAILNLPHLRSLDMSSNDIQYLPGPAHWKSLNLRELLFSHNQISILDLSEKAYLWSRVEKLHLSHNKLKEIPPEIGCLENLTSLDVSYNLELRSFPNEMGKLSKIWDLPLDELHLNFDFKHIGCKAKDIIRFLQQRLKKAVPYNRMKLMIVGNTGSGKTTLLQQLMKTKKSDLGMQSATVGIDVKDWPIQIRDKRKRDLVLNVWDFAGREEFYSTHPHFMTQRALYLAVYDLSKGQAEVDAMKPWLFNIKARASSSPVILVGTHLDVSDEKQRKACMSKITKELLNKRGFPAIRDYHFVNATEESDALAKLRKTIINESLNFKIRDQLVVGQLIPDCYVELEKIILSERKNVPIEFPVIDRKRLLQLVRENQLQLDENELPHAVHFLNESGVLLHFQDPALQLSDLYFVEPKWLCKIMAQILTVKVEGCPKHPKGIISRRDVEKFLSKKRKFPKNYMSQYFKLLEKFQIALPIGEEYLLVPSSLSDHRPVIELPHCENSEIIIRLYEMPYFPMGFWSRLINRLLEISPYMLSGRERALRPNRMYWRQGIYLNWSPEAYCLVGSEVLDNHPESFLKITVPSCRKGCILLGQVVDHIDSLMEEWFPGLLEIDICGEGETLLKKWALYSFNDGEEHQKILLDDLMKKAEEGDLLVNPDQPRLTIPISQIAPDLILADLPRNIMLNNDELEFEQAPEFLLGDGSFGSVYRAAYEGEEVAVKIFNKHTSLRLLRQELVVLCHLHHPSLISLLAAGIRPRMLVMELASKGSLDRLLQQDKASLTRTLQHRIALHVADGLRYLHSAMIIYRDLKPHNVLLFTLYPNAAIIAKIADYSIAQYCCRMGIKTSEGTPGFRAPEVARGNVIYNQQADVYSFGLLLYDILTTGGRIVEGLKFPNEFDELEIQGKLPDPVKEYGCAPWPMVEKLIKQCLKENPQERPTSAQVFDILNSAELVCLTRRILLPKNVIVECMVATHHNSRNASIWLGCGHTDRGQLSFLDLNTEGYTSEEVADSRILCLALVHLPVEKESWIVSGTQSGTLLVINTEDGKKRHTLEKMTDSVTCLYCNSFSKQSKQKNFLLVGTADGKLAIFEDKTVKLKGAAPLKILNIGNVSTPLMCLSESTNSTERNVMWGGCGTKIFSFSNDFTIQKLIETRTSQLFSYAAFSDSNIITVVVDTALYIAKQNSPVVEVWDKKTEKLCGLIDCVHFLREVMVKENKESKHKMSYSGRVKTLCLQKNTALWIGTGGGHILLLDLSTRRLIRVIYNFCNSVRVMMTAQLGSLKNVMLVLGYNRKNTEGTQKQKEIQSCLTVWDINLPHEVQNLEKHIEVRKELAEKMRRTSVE
Chain of LRRK2 (Q5S007 whole entry): as the sequence (Q5S007 whole entry G2019S) above, with S2019G counted along it

GI50 (SHP-77): 301 to 1000 nM
remaining binding at 1 µM (TTK): 4.8%
remaining binding at 1 µM (LRRK2 (G2019S)): 16%
remaining binding at 1 µM (LRRK2): 20%
Compound: COCCNc1cc(Nc2ccc(P3(=O)CCN(C4CC4)CC3)cc2OC)nc2[nH]cc(C(F)(F)F)c12 [Example 207, 1-cyclopropyl-4-(3-methoxy-4-((4-((2-methoxyethyl)amino)-3-(trifluoromethyl)-1H-pyrrolo[2,3-b]pyridin-6-yl)amino)phenyl)-1,4-azaphosphinane 4-oxide]
inhibition at 0.5 µM (TNF-α): 39.8%
inhibition at 0.5 µM (IL-6): 41.7%
